From patent publication US20250041429A1, “COMPOUND HAVING BTK PROTEIN DEGRADATION ACTIVITY, AND MEDICAL USES THEREOF” (UBIX THERAPEUTICS, INC., priority 2021, published 2025) come the findings set out here.

The target of the experiment is T1, BTK protein (Homo sapiens, UniProt Q06187).
T1 construct: endogenous in cells; host or cells: TMD-8 cells
Briefly: Measurement of BTK protein degradation ability in TMD-8 cells (Western blotting). It counts as cell-based. The conditions noted are these: harvested after 24 hours; for BTK degradation (%) 1 nM: compound 1 nM; for BTK degradation (%) 10 nM: compound 10 nM; for BTK degradation (%) 100 nM: compound 100 nM. The method, boiled down:
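BTK levels were measured by immunoblotting of equal-protein RIPA lysates, normalized to GAPDH or β-actin, with chemiluminescent or infrared detection. Lysates came from TMD-8 cells exposed to compound for 24 h at final concentrations of 0.1, 1, 10 μM or 0.0001–0.1 μM, against a DMSO control.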
In general terms: Immunoblotting shows a protein as a band on a membrane.

T1 sequence (Q06187 whole entry): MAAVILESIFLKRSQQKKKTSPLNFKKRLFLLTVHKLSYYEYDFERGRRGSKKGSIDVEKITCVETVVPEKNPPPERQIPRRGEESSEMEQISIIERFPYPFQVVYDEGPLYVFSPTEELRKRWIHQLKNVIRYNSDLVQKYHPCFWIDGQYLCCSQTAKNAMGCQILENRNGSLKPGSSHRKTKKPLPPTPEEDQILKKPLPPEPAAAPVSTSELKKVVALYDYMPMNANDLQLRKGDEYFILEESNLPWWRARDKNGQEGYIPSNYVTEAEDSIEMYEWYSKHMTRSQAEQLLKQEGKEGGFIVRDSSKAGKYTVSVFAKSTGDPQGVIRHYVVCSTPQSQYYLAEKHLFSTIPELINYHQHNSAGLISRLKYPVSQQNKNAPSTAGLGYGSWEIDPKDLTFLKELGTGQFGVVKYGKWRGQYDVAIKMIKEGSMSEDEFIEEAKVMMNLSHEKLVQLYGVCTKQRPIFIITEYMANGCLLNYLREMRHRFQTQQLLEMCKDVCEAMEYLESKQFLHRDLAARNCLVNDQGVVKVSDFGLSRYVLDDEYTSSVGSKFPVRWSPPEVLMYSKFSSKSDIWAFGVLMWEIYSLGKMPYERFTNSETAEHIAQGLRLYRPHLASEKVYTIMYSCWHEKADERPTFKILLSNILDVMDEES

Regarding `Cc1cc(-c2ccnc(Nc3ccc(N4CCC(CN5CCC(c6ccc(NC7CCC(=O)NC7=O)cc6)CC5)CC4)cc3)n2)ccc1CNC(=O)c1cnn(C(C)(C)C)c1` (stereo not drawn) [Example 135, 1-(tert-butyl)-N-(4-(2-((4-(4-((4-(4-((2,6-dioxopiperidin-3-yl)amino)phenyl)piperidin-1-yl)methyl)piperidin-1-yl)phenyl)amino)pyrimidin-4-yl)-2-methylbenzyl)-1H-pyrazole-4-carboxamide], the “BTK degradation (%) 1 nM” value stood at 59.0%, the “BTK degradation (%) 10 nM” value was determined as 94.5% and the “BTK degradation (%) 100 nM” value came to 99.0%.

Turning to `Cc1cc(-c2ccnc(Nc3ccc(N4CCC(CN5CCC(c6ccc(NC7CCC(=O)NC7=O)cc6)CC5)CC4)cc3)n2)ccc1CNC(=O)c1cn(C(C)(C)C)nn1` (stereo not drawn) [Example 136, 1-(tert-butyl)-N-(4-(2-((4-(4-((4-(4-((2,6-dioxopiperidin-3-yl)amino)phenyl)piperidin-1-yl)methyl)piperidin-1-yl)phenyl)amino)pyrimidin-4-yl)-2-methylbenzyl)-1H-1,2,3-triazole-4-carboxamide], the “BTK degradation (%) 1 nM” value is listed as 71.0%, the “BTK degradation (%) 10 nM” value is 95.5% and the “BTK degradation (%) 100 nM” value came out at 98.5%.

For the compound `Cc1cc(-c2ccnc(Nc3ccc(N4CCC(CN5CCC(c6ccc(NC7CCC(=O)NC7=O)cc6)CC5)CC4)cc3)n2)cnc1CNC(=O)c1cn(C(C)(C)C)nn1` (stereo not drawn) [Example 137, 1-(tert-butyl)-N-((5-(2-((4-(4-((4-(4-((2,6-dioxopiperidin-3-yl)amino)phenyl)piperidin-1-yl)methyl)piperidin-1-yl)phenyl)amino)pyrimidin-4-yl)-3-methylpyridin-2-yl)methyl)-1H-1,2,3-triazole-4-carboxamide], the “BTK degradation (%) 1 nM” value was 25.0%, the “BTK degradation (%) 10 nM” value turned out to be 81.5% and the “BTK degradation (%) 100 nM” value is recorded as 97.0%.

Consider `Cc1cc(-c2ccnc(Nc3ccc(N4CCC(CN5CCC(c6cccc(N7CCC(=O)NC7=O)c6)CC5)CC4)cc3)n2)ccc1CNC(=O)c1cn(C(C)(C)C)nn1` [Example 138, 1-(tert-butyl)-N-(4-(2-((4-(4-((4-(3-(2,4-dioxotetrahydropyrimidin-1 (2H)-yl)phenyl)piperidin-1-yl)methyl)piperidin-1-yl)phenyl)amino)pyrimidin-4-yl)-2-methylbenzyl)-1H-1,2,3-triazole-4-carboxamide], for which the “BTK degradation (%) 1 nM” value turned out to be 15.5%, the “BTK degradation (%) 10 nM” value is on record as 71.5% and the “BTK degradation (%) 100 nM” value is given as 90.0%.

For the compound `Cc1cc(-c2ccnc(Nc3ccc(N4CCC(CN5CCC(c6ccc(N7CCC(=O)NC7=O)cc6)CC5)CC4)cc3)n2)ccc1CNC(=O)c1cn(C(C)(C)C)nn1` [Example 139, 1-(tert-butyl)-N-(4-(2-((4-(4-((4-(4-(2,4-dioxotetrahydropyrimidin-1 (2H)-yl)phenyl)piperidin-1-yl)methyl)piperidin-1-yl)phenyl)amino)pyrimidin-4-yl)-2-methylbenzyl)-1H-1,2,3-triazole-4-carboxamide], the “BTK degradation (%) 1 nM” value came to 15.5%, the “BTK degradation (%) 10 nM” value was found to be 68.0% and the “BTK degradation (%) 100 nM” value was determined as 95.0%.

Take `Cc1cc(-c2ccnc(Nc3ccc(CN4CCC(CN5CCC(c6cccc(N7CCC(=O)NC7=O)c6)CC5)CC4)cc3)n2)ccc1CNC(=O)c1cn(C(C)(C)C)nn1` [Example 140]: the “BTK degradation (%) 1 nM” value turned out to be 0.5%, the “BTK degradation (%) 10 nM” value stood at 10.5% and the “BTK degradation (%) 100 nM” value turned out to be 77.0%.

Consider `Cc1cc(-c2ccnc(Nc3ccc(CN4CCC(CN5CCC(c6ccc(N7CCC(=O)NC7=O)cc6)CC5)CC4)cc3)n2)ccc1CNC(=O)c1cn(C(C)(C)C)nn1` [Example 141, 1-(tert-butyl)-N-(4-(2-((4-((4-((4-(4-(2,4-dioxotetrahydropyrimidin-1 (2H)-yl)phenyl)piperidin-1-yl)methyl)piperidin-1-yl)methyl)phenyl)amino)pyrimidin-4-yl)-2-methylbenzyl)-1H-1,2,3-triazole-4-carboxamide], for which the “BTK degradation (%) 1 nM” value is recorded as 15.0%, the “BTK degradation (%) 10 nM” value worked out at 70.5% and the “BTK degradation (%) 100 nM” value was 96.5%.

Consider `Cc1cc(-c2ccnc(Nc3ccc(CN4CCC(CN5CCC(c6ccc(NC7CCC(=O)NC7=O)cc6)CC5)CC4)cc3)n2)ccc1CNC(=O)c1cn(C(C)(C)C)nn1` (stereo not drawn) [Example 142, 1-(tert-butyl)-N-(4-(2-((4-((4-((4-(4-((2,6-dioxopiperidin-3-yl)amino)phenyl)piperidin-1-yl)methyl)piperidin-1-yl)methyl)phenyl)amino)pyrimidin-4-yl)-2-methylbenzyl)-1H-1,2,3-triazole-4-carboxamide], for which the “BTK degradation (%) 1 nM” value is 44.5%, the “BTK degradation (%) 10 nM” value is reported as 88.5% and the “BTK degradation (%) 100 nM” value is 99.0%.

Consider `CC(C)(C)n1cc(C(=O)NCc2ccc(-c3ccnc(Nc4ccc(N5CCC(CN6CCC(c7ccc(NC8CCC(=O)NC8=O)cc7)CC6)CC5)cc4)n3)cc2CO)nn1` (stereo not drawn) [Example 143, 1-(tert-butyl)-N-(4-(2-((4-(4-((4-(4-((2,6-dioxopiperidin-3-yl)amino)phenyl)piperidin-1-yl)methyl)piperidin-1-yl)phenyl)amino)pyrimidin-4-yl)-2-(hydroxymethyl)benzyl)-1H-1,2,3-triazole-4-carbamide], for which the “BTK degradation (%) 1 nM” value is 74.0%, the “BTK degradation (%) 10 nM” value worked out at 99.5% and the “BTK degradation (%) 100 nM” value amounted to 100.0%.

On to `Cc1cc(-c2ccnc(Nc3ccc(N4CCC(CN5CCC(c6ccc(OC7CCC(=O)NC7=O)cc6)CC5)CC4)nc3)n2)ccc1CNC(=O)N1CC(OC(C)C)C1` (stereo not drawn) [Example 144, N-(4-(2-((6-(4-((4-(4-((2,6-dioxopiperidin-3-yl)oxy)phenyl)piperidin-1-yl)methyl)piperidin-1-yl)pyridin-3-yl)amino)pyrimidin-4-yl)-2-methylbenzyl)-3-isopropoxyazetidine-1-carboxamide], for which the “BTK degradation (%) 1 nM” value came to 28.0%, the “BTK degradation (%) 10 nM” value amounted to 77.0% and the “BTK degradation (%) 100 nM” value worked out at 98.5%.

With `Cc1cc(-c2ccnc(Nc3ccc(N4CCC(CN5CCC(c6ccc(NC7CCC(=O)NC7=O)cc6)CC5)CC4)nc3)n2)ccc1CNC(=O)N1CC(OC(C)C)C1` (stereo not drawn) [Example 145, N-(4-(2-((6-(4-((4-(4-((2,6-dioxopiperidin-3-yl)amino)phenyl)piperidin-1-yl)methyl)piperidin-1-yl)pyridin-3-yl)amino)pyrimidin-4-yl)-2-methylbenzyl)-3-isopropoxyazetidine-1-carboxamide], the “BTK degradation (%) 1 nM” value is reported as 27.5%, the “BTK degradation (%) 10 nM” value came out at 85.0% and the “BTK degradation (%) 100 nM” value was determined as 99.0%.

As for `Cc1cc(-c2ccnc(Nc3ccc(N4CCC(CN5CCC(c6ccc(NC7CCC(=O)NC7=O)cc6)CC5)CC4)nc3)n2)ccc1CNC(=O)c1cn(C(C)(C)C)nn1` (stereo not drawn) [Example 146, 1-(tert-butyl)-N-(4-(2-((6-(4-((4-(4-((2,6-dioxopiperidin-3-yl)amino)phenyl)piperidin-1-yl)methyl)piperidin-1-yl)pyridin-3-yl)amino)pyrimidin-4-yl)-2-methylbenzyl)-1H-1,2,3-triazole-4-carboxamide], the “BTK degradation (%) 1 nM” value worked out at 26.5%, the “BTK degradation (%) 10 nM” value stood at 88.0% and the “BTK degradation (%) 100 nM” value is 99.0%.
